Experimental data: US20110189686A1, “SCREENING FOR MODULATORS OF CYP2B15 AND/OR GPD1 FOR THE TREATMENT OF ACNE, OF SEBORRHOEIC DERMATITIS OR OF HYPERSEBORRHOEA” (Galderma Research & Development, priority 2008, published 2011)

Legend:
[1] = tested on: CYP2B15; assay: Real-time PCR of CYP2B15 expression in rat sebaceous gland (epidermal split) after topical PPARgamma agonist, kinetics; type: in vivo; settings: topical 1% in acetone, female FUZZY rats, standardized to 18S, versus carrier group
Excerpt: • Strain: Ico:HSd:FUZZY-fz • Gender: female • Age: 10 weeks Number per batch: 40 (8 animals per group) Treatment: Route of administration: topical • Compound/batch: PPARgamma agonists: • A: 5-{4-[2-(methylpyridin-2-ylamino)ethoxy]benzyl}thiazolidine-2,4-dione • B: 2-(methoxyethoxymethoxy)naphthalene-2-carboxylic acid [4′-(2,4-dioxothiazolidin-5-ylmethyl)biphenyl-3-ylmethyl]methylamide or rosiglitazone • C: (S)-2-ethoxy-3-{4-[6-(3-heptyl-1-methylureido)pyridin-2-yl]phenyl}propionic acid • Doses: 1% • Carrier: acetone (001) • Duration: 96 hours Method of evaluation: The animals are weighed at the beginning and at the end of the study. Skin biopsies are taken (6 samples of skin excised per rat) in order to analyze the expression of the genes (RNA extraction, reverse transcriptase and real-time PCR). The samples are stored at 4° C. overnight before incubation in 1 M sodium bromide (NaBr) for 2 hours at 37° C. After incubation, the samples are separated into epidermis or dermis. The epidermal samples are stored at […] Under these conditions, the sebaceous glands are in the epidermal split. PCRs are carried out, beginning with the cDNAs originating from the epidermal splits containing sebaceous glands from control rats or rats treated with a PPARγ agonist: the mRNA is extracted using a column and quantified. The quality of the mRNAs is measured and is represented by the 18S/28S ratio. The results are standardized with respect to 18S, expressed as relative induction versus untreated animals (carrier group). The statistical analysis is obtained using internal software based on a modified Monte Carlo statistical analysis.

[2] = tested on: GPD1; assay: Real-time PCR of GPD1 expression in rat sebaceous gland (epidermal split) after topical PPARgamma agonist, kinetics; type: in vivo; settings: topical 1% in acetone, female FUZZY rats, standardized to 18S, versus carrier group
Experimental: Skin biopsies are taken (6 samples of skin excised per rat) in order to analyze the expression of the genes (RNA extraction, reverse transcriptase and real-time PCR). The samples are stored at 4° C. overnight before incubation in 1 M sodium bromide (NaBr) for 2 hours at 37° C. After incubation, the samples are separated into epidermis or dermis. The epidermal samples are stored at 20° C. Under these conditions, the sebaceous glands are in the epidermal split. PCRs are carried out, beginning with the cDNAs originating from the epidermal splits containing sebaceous glands from control rats or rats treated with a PPARγ agonist: the mRNA is extracted using a column and quantified. The quality of the mRNAs is measured and is represented by the 18S/28S ratio. The results are standardized with respect to 18S, expressed as relative induction versus untreated animals (carrier group). The statistical analysis is obtained using internal software based on a modified Monte Carlo statistical analysis.

[3] = tested on: CYP2B15; assay: Affymetrix transcriptome measurement of CYP2B15 expression in Fuzzy rat epidermal split after 8 days of topical treatment; settings: topical 1%
Experimental: The studies are carried out in female Fuzzy rats (Hsd: FUZZY-fz) 10 weeks old at the beginning of the study. The animals are treated at a dose of 1% (PPARg agonist Rosiglitazone in solution in acetone) once a day for 8 days. Two hours after the final treatment, the animals are sacrificed by euthanasia and the skin on the back is removed. After incubation in dispase, the epidermis carrying the sebaceous glands is detached from the dermis (epidermal split). After grinding of the samples, the mRNA is prepared using Qiagen columns, in accordance with the suppliers' instructions. The material thus prepared is subjected to large-scale transcriptome analysis on an Affymetrix platform. The data are subsequently standardized and, after statistical analysis, the results produced are expressed in arbitrary expression units (see below) accompanied, for each piece of data, by a statistical value for presence of the transcript (presence=1; absence=0).

[4] = tested on: GPD1; assay: Affymetrix transcriptome measurement of GPD1 expression in Fuzzy rat epidermal split after 8 days of topical treatment; type: in vivo; settings: GPD1 mRNA (1371363_at), female FUZZY rats, topical 1%, once a day for 8 days, control condition 66

In the case of CN(CCOc1ccc(CC2SC(=O)NC2=O)cc1)c1ccccn1 (centres unmarked) [A, 5-{4-[2-(methylpyridin-2-ylamino)ethoxy]benzyl}thiazolidine-2,4-dione], the CYP2B15 relative induction ([1]; 0 hours) was 1, the CYP2B15 relative induction ([1]; 8 hours) was 1.56 and the CYP2B15 relative induction ([1]; 24 hours) was 0.68. The CYP2B15 relative induction ([1]; 48 hours) was 0.29, the CYP2B15 relative induction ([1]; 96 hours) was 0.08 and the GPD1 relative induction ([2]; 0 hours) was 1. It also gave a GPD1 relative induction ([2]; 8 hours) of 18.52, a GPD1 relative induction ([2]; 24 hours) of 12.53 and a GPD1 relative induction ([2]; 48 hours) of 6.93. For the same compound, the GPD1 relative induction ([2]; 96 hours) was 3.42.
CCCCCCCNC(=O)N(C)c1cccc(-c2ccc(C[C@H](OCC)C(=O)O)cc2)n1 [C, (S)-2-ethoxy-3-{4-[6-(3-heptyl-1-methylureido)pyridin-2-yl]phenyl}propionic acid] showed a CYP2B15 relative induction ([1]; 0 hours) of 1, a CYP2B15 relative induction ([1]; 8 hours) of 0.61 and a CYP2B15 relative induction ([1]; 24 hours) of 0.18. The CYP2B15 relative induction ([1]; 48 hours) was 0.11, the CYP2B15 relative induction ([1]; 96 hours) was 0.04 and the GPD1 relative induction ([2]; 0 hours) was 1. The GPD1 relative induction ([2]; 8 hours) was 7.59, the GPD1 relative induction ([2]; 24 hours) was 11.56 and the GPD1 relative induction ([2]; 48 hours) was 7.50. For the same compound, the GPD1 relative induction ([2]; 96 hours) was 3.44.
For CN(CCOc1ccc(CC2SC(=O)NC2=O)cc1)c1ccccn1 (centres unmarked) [Rosiglitazone], the “Expression after treatment with 1% Rosiglitazone” value ([3]; CYP2B15 mRNA (1387722_at), female FUZZY rats, once a day for 8 days, control condition 120) was 35 arbitrary expression units, the “Significance of the expression after treatment with 1% Rosiglitazone” value ([3]; CYP2B15 transcript presence indicator, 8 days) was 1 and the “Expression after treatment with 1% Rosiglitazone” value [4] was 243 arbitrary expression units.
